Results on 5 compounds are retold here after ChEMBL document CHEMBL1629496, “Four diphenylpropanes and a cycloheptadibenzofuran from Bussea sakalava from the Madagascar dry forest” (J Nat Prod, 2010).

The test system of the test is A2780. The test is described as follows: Antiproliferative activity against drug-sensitive human A2780 cells. Format: functional, cell-based.

As a reminder, the IC50 is the concentration at which inhibition is half-maximal. The low end stands for inhibition by little substance, the high end for a need for much substance.

In the case of `COc1ccc(CCCc2ccc(OC)c(O)c2O)cc1O` [BUSSEALIN C], the IC50 was determined as 36 µM.

The compound `COc1cc(OC)c(OC)cc1CCCc1ccc(OC)c(O)c1O` [BUSSEALIN D] had an IC50 of 40 µM.

Turning to `COc1ccc(CCCc2cc(O)c(OC)c(O)c2)c(O)c1O` [BUSSEALIN A], it took 36 µM to reach half-maximal inhibition (IC50).

Compound `COc1c(O)c2c3c(oc4c(OC)c(O)cc(c43)CCC2)c1OC` [BUSSEALIN E] came in with an IC50 of 45 µM.

Regarding `COc1cc(OC)c(CCCc2ccc(OC)c(O)c2O)cc1O` [BUSSEALIN B], half-maximal inhibition (IC50) required 24 µM. This IC50 is about 1.9-fold lower than that of the compound before.
